Reference: paper PMC3280956, “DOGS: Reaction-Driven de novo Design of Bioactive Compounds” (PLoS Computational Biology, 2012)

Experiments:
5-HT1D receptor = 5-HT1D receptor (Homo sapiens, UniProt P28221); test: Cerep GPCR panel, antagonistic effect on 5-HT1D receptor; assay type: cell-based
hH4R = molecular target: T1, hH4R (Homo sapiens, UniProt Q9H3N8); test: Competitive binding, displacement of [3H]histamine, Sf9 membranes expressing hH4R; settings: three measurements
T1 construct: made in house; host or cells: insect Sf9 cells (membrane preparations)
T1 sequence (Q9H3N8 whole entry): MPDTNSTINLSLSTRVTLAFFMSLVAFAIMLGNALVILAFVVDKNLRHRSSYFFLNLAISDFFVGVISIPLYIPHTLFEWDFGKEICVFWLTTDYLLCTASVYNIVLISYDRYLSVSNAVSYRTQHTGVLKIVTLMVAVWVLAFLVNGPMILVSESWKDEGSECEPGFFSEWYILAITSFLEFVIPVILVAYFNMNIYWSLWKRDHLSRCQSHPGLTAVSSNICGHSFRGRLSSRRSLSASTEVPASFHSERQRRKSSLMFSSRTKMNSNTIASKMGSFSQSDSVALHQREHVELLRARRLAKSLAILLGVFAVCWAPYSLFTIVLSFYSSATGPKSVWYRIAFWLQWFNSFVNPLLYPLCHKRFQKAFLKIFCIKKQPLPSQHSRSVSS
Protocol: (§1) In order to test for the hypothesis that a combination of the features – as found in compound 7 – might lead to hH4R affinity, compound 7 was selected for synthesis and testing. […] Binding affinity of compound 7 was determined in a competitive binding assay by measuring displacement of radioactively labeled [^3H]histamine bound to hH4R [42]. Membrane preparations of insect Sf9 cells expressing hH4R together with G-protein subunits Gαi2 and Gβ1γ2 were performed to yield the protein. A similar assay was used to measure the activity on hH3R (reference ligand: [^3H]N ^α-methylhistamine).

hH3R = hH3R (Homo sapiens, UniProt Q9Y5N1); test: Competitive binding, displacement of [3H]Nα-methylhistamine at hH3R; settings: averaged over four distinct tests
Chain of hH3R (Q9Y5N1 whole entry): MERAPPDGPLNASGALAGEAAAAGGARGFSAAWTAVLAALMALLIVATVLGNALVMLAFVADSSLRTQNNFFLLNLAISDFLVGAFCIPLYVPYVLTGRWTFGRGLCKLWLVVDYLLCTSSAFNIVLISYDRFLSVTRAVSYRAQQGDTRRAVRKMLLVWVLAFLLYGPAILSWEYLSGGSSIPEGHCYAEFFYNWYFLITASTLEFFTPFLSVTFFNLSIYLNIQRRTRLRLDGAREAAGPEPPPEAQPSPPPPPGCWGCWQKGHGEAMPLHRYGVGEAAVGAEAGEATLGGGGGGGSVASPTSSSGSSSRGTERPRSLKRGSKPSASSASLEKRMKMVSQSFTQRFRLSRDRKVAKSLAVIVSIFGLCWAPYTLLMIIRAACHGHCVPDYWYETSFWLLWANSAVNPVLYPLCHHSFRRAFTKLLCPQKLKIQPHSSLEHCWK
Protocol: as §1

other GPCRs in the panel = test: Cerep panel, other human GPCRs; assay type: cell-based; settings: remaining GPCRs of the 30-receptor panel
δ2 opioid receptor = δ2 opioid receptor (Homo sapiens, UniProt P41143); test: Cerep GPCR panel, antagonistic effect on δ2 opioid receptor; assay type: cell-based; settings: n = 2
Chain of δ2 opioid receptor (P41143 whole entry): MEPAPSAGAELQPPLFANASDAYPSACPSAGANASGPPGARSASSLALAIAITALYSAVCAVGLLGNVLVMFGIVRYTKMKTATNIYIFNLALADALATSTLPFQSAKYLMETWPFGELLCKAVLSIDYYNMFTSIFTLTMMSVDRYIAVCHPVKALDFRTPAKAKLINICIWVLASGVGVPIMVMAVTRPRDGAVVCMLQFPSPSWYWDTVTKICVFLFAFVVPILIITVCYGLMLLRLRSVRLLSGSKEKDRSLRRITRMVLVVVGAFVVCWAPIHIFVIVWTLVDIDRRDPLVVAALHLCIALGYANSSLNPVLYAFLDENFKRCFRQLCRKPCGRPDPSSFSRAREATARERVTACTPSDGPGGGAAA

κ opioid receptor = κ opioid receptor (Homo sapiens, UniProt P41145)
Chain of κ opioid receptor (P41145 whole entry): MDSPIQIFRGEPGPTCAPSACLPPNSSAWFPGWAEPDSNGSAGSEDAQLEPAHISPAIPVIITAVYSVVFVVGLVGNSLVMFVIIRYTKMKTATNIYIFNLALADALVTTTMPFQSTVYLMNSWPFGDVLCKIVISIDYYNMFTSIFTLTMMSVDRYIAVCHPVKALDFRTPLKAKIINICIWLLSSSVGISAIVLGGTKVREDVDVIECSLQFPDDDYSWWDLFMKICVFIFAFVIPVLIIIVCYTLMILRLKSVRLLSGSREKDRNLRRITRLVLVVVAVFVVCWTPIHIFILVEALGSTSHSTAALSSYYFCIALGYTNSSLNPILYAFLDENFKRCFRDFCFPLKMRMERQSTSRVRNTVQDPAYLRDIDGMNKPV

γ-secretase = γ-secretase (Homo sapiens, UniProt P49768); test: Aβ sandwich ELISA in supernatants of CHO cells overexpressing human APP and presenilin-1; assay type: cell-based; settings: for Modulation of γ-secretase activity (type): Aβ38/40/42 ELISA, 0.1-40 μM
Protocol: One-step reactions yielded the desired products in both cases. […] Synthesized compounds were tested for their ability to modulate the γ-secretase product spectrum as previously described. CHO cells with stable overexpression of human APP and presenilin-1 were treated with increasing concentrations of 3 and 4. Subsequently, concentrations of secreted Aβ peptides were detected in cell supernatants by sandwich ELISA using C-terminus specific antibodies that distinguish between Aβ38, Aβ40, and Aβ42 peptide species. […] This pattern of inverse γ-secretase modulation has previously been observed, e.g. with derivatives of the non-steroidal anti-inflammatory drug indomethacin [35]. […] Compounds 3 and 4 can serve as tool compounds and – more importantly – as starting points for an optimization of the pharmacological profile by structural modification. […]
Figure S5. Modulation of γ-secretase activity by designed compounds 3 (A) and 4 (B). Both […]
higher levels of Aβ42. Concentrations of secreted Ab peptides were detected in cell supernatants by sandwich ELISA using C-terminus specific antibodies that distinguish between Aβ38, Aβ40, and Aβ42 peptide species as previously described.

Trypsin = settings: cited from earlier work
Thrombin = settings: cited from earlier work
Trypsin (bovine) = molecular target: Trypsin (bovine); design: method as in PMID 15771442; settings: cited from earlier work

Chain of 5-HT1D receptor (P28221 whole entry): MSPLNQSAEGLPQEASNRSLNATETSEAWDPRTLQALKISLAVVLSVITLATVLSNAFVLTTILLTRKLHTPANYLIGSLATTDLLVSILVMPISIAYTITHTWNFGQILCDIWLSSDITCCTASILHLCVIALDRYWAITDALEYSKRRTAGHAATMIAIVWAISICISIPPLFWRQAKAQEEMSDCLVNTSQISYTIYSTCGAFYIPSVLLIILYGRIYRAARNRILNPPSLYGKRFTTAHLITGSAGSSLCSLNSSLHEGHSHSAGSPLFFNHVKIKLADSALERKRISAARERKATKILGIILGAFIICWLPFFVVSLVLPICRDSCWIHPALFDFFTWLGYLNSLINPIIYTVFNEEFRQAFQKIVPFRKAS

Structure (SMILES): Clc1cccc(-c2cn(CCOCCN3CCNCC3)nn2)c1 [Compound 7]
- residual activity of the receptor (5-HT1D receptor; antagonistic effect, n = 2): 62%
- Ki (hH4R): 436000 ± 137000 nM
- Ki (hH3R): 466000 ± 209000 nM
- response at other GPCRs in the panel (other GPCRs in the panel): only weak responses in the single digit or low double-digit percent range
- residual activity of the receptor (δ2 opioid receptor): 76%
- agonistic effect, % of the effect of the reference agonist U50488 (κ opioid receptor): 21%

Structure (SMILES): COc1ccc(N2CCN(C(=O)c3ccc(-c4cc(C(F)(F)F)ccc4Cl)o3)CC2)cc1 [Compound 4]
- Modulation of γ-secretase activity (type) (γ-secretase): inverse modulators

Structure (SMILES): CC1=CCN(C(=O)C(Cc2cccc(C(=N)N)c2)NS(=O)(=O)c2ccc3c(c2)CN(C)CC3)C(C(=O)O)C1 (stereo not drawn) [UK-156406]
- Ki (Trypsin): 26 nM
- Ki (Thrombin): 0.46 nM

Structure (SMILES): CN[C@H](Cc1ccccc1)C(=O)N1CCC[C@H]1C(=O)N[C@H](C=O)CCCN=C(N)N [Efegatran]
- Ki (Trypsin (bovine)): 9.1 nM
- Ki (Thrombin): 18 nM

Structure (SMILES): CSc1ccc2c(c1)C(N1CCN(C)CC1)Cc1ccccc1S2 (stereo not drawn) [methiothepin, reference compound]
- IC50 (5-HT1D receptor; reference compound): 1100 nM

Structure (SMILES): COc1cc(-n2c(C)ccc2C)c(OC)cc1NC(=O)c1ccccc1 [Compound 3]
- Modulation of γ-secretase activity (type) (γ-secretase): inverse modulators
- Aβ38 levels (γ-secretase; secreted Aβ38, CHO cells, increasing concentrations): decrease
- Aβ42 levels (γ-secretase; secreted Aβ42, CHO cells, increasing concentrations): dose-dependent increase

Structure (SMILES): N=C(N)Nc1ccc(C(=O)Oc2ccc(SCCN3C(=O)CCC3=O)cc2)cc1 [Patamostat]
- IC50 (Trypsin): 39 nM
- IC50 (Thrombin): 1900 nM

Structure (SMILES): CN(C)C(=O)COC(=O)Cc1ccc(OC(=O)c2ccc(NC(=N)N)cc2)cc1 [Camostat]
- Ki (Trypsin): 50.6 nM
